Reference: publication PMC9127186, “Molecular Basis Underlying Hepatobiliary and Renal Excretion of Phenolic Acids of Salvia miltiorrhiza Roots (Danshen)” (Frontiers in Pharmacology, 2022)

What was measured:
human OAT1 = target: T1, human OAT1 (Homo sapiens, UniProt Q4U2R8); assay: Cellular transport assay, HEK-293 cells expressing human OAT1; details: for TransportTC/TransportMC ratio (net transport ratio): 10 min; for K m: human renal basolateral uptake OAT1, 5 min incubation, concentrations in Table 1
T1 sequence (Q4U2R8 1-563): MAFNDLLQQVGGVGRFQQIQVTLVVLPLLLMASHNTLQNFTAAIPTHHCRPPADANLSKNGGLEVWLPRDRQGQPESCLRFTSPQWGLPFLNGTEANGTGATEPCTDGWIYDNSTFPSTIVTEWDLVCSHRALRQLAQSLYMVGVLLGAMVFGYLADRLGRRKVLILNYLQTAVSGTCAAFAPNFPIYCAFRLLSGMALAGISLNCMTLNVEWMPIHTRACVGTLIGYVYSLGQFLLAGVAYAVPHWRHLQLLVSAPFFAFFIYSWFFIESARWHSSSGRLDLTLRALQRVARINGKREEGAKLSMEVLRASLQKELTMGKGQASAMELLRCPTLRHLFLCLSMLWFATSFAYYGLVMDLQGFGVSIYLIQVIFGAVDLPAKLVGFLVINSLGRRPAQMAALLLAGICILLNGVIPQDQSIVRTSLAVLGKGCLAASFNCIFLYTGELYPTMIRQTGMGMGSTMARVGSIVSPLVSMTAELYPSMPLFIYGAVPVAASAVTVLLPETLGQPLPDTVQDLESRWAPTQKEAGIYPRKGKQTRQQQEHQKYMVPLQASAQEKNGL
Method: Briefly, HEK-293 cells were grown, at 37°C and 5% CO2, in Dulbecco’s modified Eagle’s medium, which was fortified with 10% fetal bovine serum, 1% minimal essential medium nonessential amino acids, and 1% antibiotic-antimycotic solution. A day before transfection, cells were seeded onto 24-well poly-D-lysine-coated plates at a density of 2 × 10^5 cells per well. After incubation at 37°C and 5% CO2 for 24 h, the expression plasmid and the empty vector were introduced separately into the HEK293 cells with Lipofectamine 2000 transfection reagent (Invitrogen, Carlsbad, CA, United States), according to the manufacturer’s protocol to yield transporter-expressing cells and mock cells, respectively.
Transport studies were performed 48 h after the transfection. […] Differential uptake between the transfected cells and mock cells was defined as net transport ratio (TransportTC/TransportMC ratio), where TransportTC and TransportMC are the transport rates of a test Danshen compound into transfected and mock cells, respectively. […] The determination was performed under linear uptake conditions by incubation for 5 min. Table 1 summarizes the final concentrations of the test Danshen compounds for different transporters. All the incubation samples were analyzed by liquid chromatography/mass spectrometry.
GraFit software (version 5.0; Erithacus Software Ltd, Surrey, United Kingdom) was used to determine the K m and V max values by nonlinear regression analysis of initial transport rates as a function of substrate concentration.

rat Bsep = target: T2, rat Bsep (Rattus norvegicus, UniProt O70127); assay: Vesicular transport assay, inside-out membrane vesicles expressing rat Bsep; details: 10 min
T2 sequence (O70127 1-1321): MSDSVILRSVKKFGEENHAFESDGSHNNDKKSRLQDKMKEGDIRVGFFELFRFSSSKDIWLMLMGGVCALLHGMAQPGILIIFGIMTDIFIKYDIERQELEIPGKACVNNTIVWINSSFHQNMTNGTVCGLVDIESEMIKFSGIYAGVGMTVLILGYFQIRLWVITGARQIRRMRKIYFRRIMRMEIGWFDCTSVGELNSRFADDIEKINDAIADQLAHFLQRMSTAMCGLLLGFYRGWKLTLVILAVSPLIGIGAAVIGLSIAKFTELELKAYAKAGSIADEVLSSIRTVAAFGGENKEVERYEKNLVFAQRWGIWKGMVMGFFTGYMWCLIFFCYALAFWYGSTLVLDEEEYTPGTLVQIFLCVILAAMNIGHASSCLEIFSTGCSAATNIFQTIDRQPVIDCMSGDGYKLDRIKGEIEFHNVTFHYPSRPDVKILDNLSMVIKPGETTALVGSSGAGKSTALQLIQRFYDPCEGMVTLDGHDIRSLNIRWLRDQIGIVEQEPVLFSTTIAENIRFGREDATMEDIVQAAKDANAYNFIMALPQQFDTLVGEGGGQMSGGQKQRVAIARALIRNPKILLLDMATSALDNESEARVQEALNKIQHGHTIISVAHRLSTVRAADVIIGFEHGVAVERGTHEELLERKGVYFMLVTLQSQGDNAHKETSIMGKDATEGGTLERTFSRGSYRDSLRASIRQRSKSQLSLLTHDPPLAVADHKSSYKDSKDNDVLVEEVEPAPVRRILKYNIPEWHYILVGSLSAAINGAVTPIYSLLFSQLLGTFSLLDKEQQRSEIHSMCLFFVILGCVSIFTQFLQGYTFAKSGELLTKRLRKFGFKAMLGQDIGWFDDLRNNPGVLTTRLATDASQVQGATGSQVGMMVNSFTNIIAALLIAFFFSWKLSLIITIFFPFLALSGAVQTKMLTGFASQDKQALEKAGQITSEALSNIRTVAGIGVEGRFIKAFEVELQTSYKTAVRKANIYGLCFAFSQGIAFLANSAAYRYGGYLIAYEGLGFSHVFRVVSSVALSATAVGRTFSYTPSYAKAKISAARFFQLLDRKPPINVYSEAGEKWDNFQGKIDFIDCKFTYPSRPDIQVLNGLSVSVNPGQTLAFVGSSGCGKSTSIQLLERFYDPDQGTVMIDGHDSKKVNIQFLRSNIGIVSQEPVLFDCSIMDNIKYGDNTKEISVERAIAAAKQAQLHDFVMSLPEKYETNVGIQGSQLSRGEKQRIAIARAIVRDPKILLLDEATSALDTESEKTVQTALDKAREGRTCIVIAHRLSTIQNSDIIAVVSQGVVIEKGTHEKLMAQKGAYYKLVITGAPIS
Method: (§1) Inside-out membrane vesicles (5 mg protein/mL), prepared from insect cells expressing human multidrug resistance-associated protein (MRP) 2, MRP3, MRP4, breast cancer resistance protein (BCRP), bile salt export pump (BSEP), and multidrug resistance protein (MDR) one and rat Mrp2, Mrp4, Bcrp, and Bsep, and vesicles (5 mg protein/mL; prepared from the insect cells expressing no ABC transporter; serving as negative control) were obtained from Genomembrane (Kanazawa, Japan).
(§2) The test Danshen compounds at 100 µM final concentration were separately incubated with the membrane vesicles for 10 min. Buffer C (50 mM MOPS-tris, 70 mM KCl, 7.5 mM MgCl2, pH 7.0) was used for preincubation and incubation, while buffer D (40 mM MOPS-tris, 70 mM KCl, pH 7.0) was used for vesicle washing. The transport rate (pmol/mg protein/min) of the test Danshen compound was calculated using Equation (2): Transport=(CV×VV)/T/WV (2) where C V, V V, T, and W V represent concentration of the compound in vesicular lysates supernatant (μM), volume of the lysates (μL), incubation time (10 min), and amount of vesicle protein amount per well (0.05 mg), respectively. Differential transport of the test Danshen compound between ATP-containing vesicles and AMP-containing vesicles was defined as net transport ratio (TransportATP/TransportAMP ratio). […] All the incubation samples were analyzed by liquid chromatography/mass spectrometry.

human BSEP = human BSEP (Homo sapiens, UniProt O95342); assay: Vesicular transport assay, inside-out membrane vesicles expressing human BSEP; details: 10 min
Method: as §1, §2

[1] = Danshen phenolic acid at 100 μM final concentration, human OAT1-transfected vs mock cells
[2] = Danshen phenolic acid at 100 μM final concentration, rat Bsep vesicles
[3] = Danshen phenolic acid at 100 μM final concentration, human BSEP vesicles

Sequence of human BSEP (O95342 whole entry): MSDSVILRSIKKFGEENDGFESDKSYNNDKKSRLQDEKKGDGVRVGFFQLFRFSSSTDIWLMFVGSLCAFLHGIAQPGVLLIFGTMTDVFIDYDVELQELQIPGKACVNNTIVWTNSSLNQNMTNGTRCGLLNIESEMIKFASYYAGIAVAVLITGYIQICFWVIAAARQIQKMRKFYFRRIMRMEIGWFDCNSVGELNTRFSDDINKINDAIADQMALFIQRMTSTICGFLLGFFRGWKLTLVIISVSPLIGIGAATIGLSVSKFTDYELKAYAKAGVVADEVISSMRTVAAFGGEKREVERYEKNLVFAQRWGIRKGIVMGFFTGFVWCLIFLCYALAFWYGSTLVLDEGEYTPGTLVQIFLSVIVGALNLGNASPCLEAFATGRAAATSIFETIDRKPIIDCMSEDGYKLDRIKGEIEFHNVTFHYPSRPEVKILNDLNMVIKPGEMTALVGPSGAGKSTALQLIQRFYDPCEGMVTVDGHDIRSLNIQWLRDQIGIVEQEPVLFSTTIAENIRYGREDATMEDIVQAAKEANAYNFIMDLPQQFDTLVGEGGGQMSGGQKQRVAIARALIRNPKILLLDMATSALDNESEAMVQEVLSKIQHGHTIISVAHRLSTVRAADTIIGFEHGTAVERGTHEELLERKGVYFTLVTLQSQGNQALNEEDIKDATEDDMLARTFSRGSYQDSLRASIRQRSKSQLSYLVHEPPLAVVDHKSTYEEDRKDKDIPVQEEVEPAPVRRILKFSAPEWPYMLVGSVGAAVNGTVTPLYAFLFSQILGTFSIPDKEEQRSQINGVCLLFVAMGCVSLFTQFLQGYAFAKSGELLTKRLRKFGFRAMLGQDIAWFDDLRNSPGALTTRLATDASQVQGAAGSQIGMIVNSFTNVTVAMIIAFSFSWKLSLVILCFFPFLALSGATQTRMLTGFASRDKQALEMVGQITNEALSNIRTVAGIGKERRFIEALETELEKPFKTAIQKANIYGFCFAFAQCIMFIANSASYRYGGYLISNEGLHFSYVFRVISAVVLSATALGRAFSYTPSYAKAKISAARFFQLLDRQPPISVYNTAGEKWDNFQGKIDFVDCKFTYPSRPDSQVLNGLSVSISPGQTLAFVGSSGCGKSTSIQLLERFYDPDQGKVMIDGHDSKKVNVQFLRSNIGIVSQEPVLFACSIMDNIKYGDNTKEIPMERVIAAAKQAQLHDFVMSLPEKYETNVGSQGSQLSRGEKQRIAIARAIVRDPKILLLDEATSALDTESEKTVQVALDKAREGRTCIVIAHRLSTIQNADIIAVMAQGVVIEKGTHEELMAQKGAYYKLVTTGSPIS

| Compound | TransportTC/TransportMC ratio (net transport ratio) (human OAT1; [1]) | TransportATP/TransportAMP ratio (net transport ratio) (rat Bsep; [2]) | TransportATP/TransportAMP ratio (net transport ratio) (human BSEP; [3]) | substrate of human OAT1 (human OAT1) | microsomal CLint (human OAT1; human) [µL/min/mg] | K m (human OAT1) [µM] | TransportTC/TransportMC ratio (net transport ratio) (human OAT1; human, 100 μM) | microsomal CLint (human OAT1; human, other cell line) [µL/min/mg] | TransportATP/TransportAMP ratio (net transport ratio) (rat Bsep; rat, 100 μM, pH 7) | TransportATP/TransportAMP ratio (net transport ratio) (human BSEP; human, 100 μM, pH 7) |
| --- | --- | --- | --- | --- | --- | --- | --- | --- | --- | --- |
| O=C(/C=C/c1ccc(O)c2c1[C@H](C(=O)O)[C@@H](c1ccc(O)c(O)c1)O2)O[C@H](Cc1ccc(O)c(O)c1)C(=O)O [Lithospermic acid, lithospermic acid] | 2.09 ± 0.89 | 1.69 ± 0.37 | 0.83 ± 0.20 |  |  |  |  |  |  |  |
| O=C(O)c1ccc(O)c(O)c1 [Protocatechuic acid, protocatechuic acid] | 53.1 ± 3.9 | 1.13 ± 0.17 | 0.99 ± 0.21 | substrates | 6.43 | 37.6 ± 2.5 |  |  |  |  |
| O=C(/C=C/c1ccc(O)c(O)c1)O[C@H](Cc1ccc(O)c(O)c1)C(=O)O [Rosmarinic acid, rosmarinic acid] |  |  |  | substrates |  | 70.8 ± 6.4 | 46.8 ± 10.9 | 2.55 | 1.39 ± 0.36 | 1.03 ± 0.09 |
| O=C(/C=C/c1ccc(O)c(O)c1/C=C/c1ccc(O)c(O)c1)O[C@H](Cc1ccc(O)c(O)c1)C(=O)O [Salvianolic acid A, salvianolic acid A] |  |  |  |  |  |  | 1.02 ± 0.14 |  | 0.75 ± 0.12 | 1.32 ± 0.26 |
| O=C(O)Cc1c(/C=C/C(=O)O[C@H](Cc2ccc(O)c(O)c2)C(=O)O)ccc(O)c1O [Salvianolic acid D, salvianolic acid D] | 11.7 ± 2.4 | 1.09 ± 0.23 | 1.19 ± 0.35 | substrates | 2.08 | 18.1 ± 2.3 |  |  |  |  |
| O=C(O)C(O)Cc1ccc(O)c(O)c1 (centres unmarked) [Tanshinol, tanshinol] |  |  |  |  |  | 98.9 ± 7.1 |  | 10.5 |  |  |
| salvianolic acid B | 1.21 ± 0.14 | 1.52 ± 0.67 | 1.43 ± 0.32 |  |  |  |  |  |  |  |
